Assay results from patent US20070212716A1, “Nezara viridula Ecdysone Receptor” (Commonwealth Scientific & Industrial Research Org., priority 2006, published 2007).

B1: (His)6-tagged NvEcR10DEF (DEF domains / ligand binding region of Nezara viridula ecdysone receptor protein isoform NvEcR10) (receptor)
chain: MGMRGSHHHHHHRPECVVPEYQCAVKRKEKKAQKDKDKPVSTTNGSPESIKVEEPHRVVYKTEGETLGRPVPINGVKPVSPEQEELIHRLVYFQNEYEHPSEEDLRRIVSNTPNEDEEQSDQRFRHLTEITILTVQLIVEFAKRLPGFDKLLREDQIALLKACSSEVMMLRMARKYDATTDSILFANNQPYNRESYSLAGMGDVIEDLLRFCRHMFNMKVDNAEYALLTAIVIFSERPALIEGWKVEKIQEIYLEALKSYVDNRSRPRSPTIFAKLLSVLTELRTLGNQNSEMCFSLKLQNKKLPPFLAEIWDVNT
notes: Co-expressed with FLAG-NvUSPDEF in Sf9 cells from one baculovirus; also called His6EcRDEF10.1; EcRDEF
B2: (His)6-tagged NvEcR11DEF (DEF domains / ligand binding region of Nezara viridula ecdysone receptor protein isoform NvEcR11) (receptor)
chain: MGMRGSHHHHHHRPECVVPEYQCAVKRKEKKAQKDKDKPVSTTNGSPESIKVEEPHRVVYKTEGETLGRPVPINGVKPVSPEQEELIHRLVYFQNEYEHPSEEDLRRINTPNEDEEQSDQRFRHLTEITILTVQLIVEFAKRLPGFDKLLREDQIALLKACSSEVMMLRMARKYDATTDSILFANNQPYNRESYSLAGMGDVIEDLLRFCRHMFNMKVDNAEYALLTAIVIFSERPALIEGWKVEKIQEIYLEALKSYVDNRSRPRSPTIFAKLLSVLTELRTLGNQNSEMCFSLKLQNKKLPPFLAEIWDVNT
notes: Co-expressed with FLAG-NvUSPDEF in Sf9 cells from one baculovirus; also called His6EcRDEF11.1; EcRDEF

Key:
NvEcR10DEF-NvUSPDEF = NvEcR10DEF-NvUSPDEF (Nezara viridula, UniProt E5L6Y1); assay: Competition binding with [3H]ponasterone A, NvEcR10DEF-NvUSPDEF; conditions: for Ki: calculated from IC50 with the Cheng-Prusoff equation; for IC50: competition with 1.3 nM bindable [3H]ponasterone A
Procedure: (§1) Ligand binding was measured by a [^3H]ponasterone A binding assay which involved trapping of [^3H]ponasterone A-receptor protein complex on glass fibre discs and washing away unbound steroid before scintillation counting in a Packard Tri-carb scintillation analyser. All such assays, unless otherwise stated, were conducted at the same concentration of bindable [^3H]ponasterone A (2.2 nM, after correcting for the fraction of radioactive material that could never be bound no matter how much receptor was added). Binding by the receptor was expressed in terms of arbitrary units (U) that, in the linear range of the assay (i.e. up to 30 000 cpm bound per filter), were directly proportional to filter-bound cpm. Historically, IU was defined as the amount of [^3H]ponasterone A binding conveyed by a fixed volume of a specific receptor preparation. Differences in the assay over time were corrected for empirically by re-assaying the reference receptor preparation with each new batch of [^3H]ponasterone A and calculating a batch-specific adjustment that was incorporated into the numerical factor used to convert filter-bound cpm into ligand binding units. On average, 1 pmol of receptor-bound [^3H]ponasterone A corresponds to approximately 15.2 U. Specific activity values (U/μg protein) can be calculated for different preparations of purified receptor and these reflect the purity of the preparation, the proportion of receptor that is functional, and the Kd value for that particular receptor.
(§2) Increasing concentrations of, ponasterone A, muristerone A, 20-hydroxyecdysone, inokosterone, and α-ecdysone (2β, 3β, 14α,22R, 25-pentahydroxy-5β-cholest-7-ene-6-one) were used to study the ability to compete with a 1.3 nM bindable concentration of [^3H] ponasterone A for binding to the Nv recombinant heterodimers NvEcR10DEF−NvUSPDEF and NvEcR11DEF−NvUSPDEF. IC50 values were obtained from smooth curves drawn through the data points (see FIG. 6), and from these Ki values were calculated using the Cheng-Prusoff equation (Cheng et at, 1973).

NvEcR11DEF-NvUSPDEF = NvEcR11DEF-NvUSPDEF (Nezara viridula, UniProt E5L6Y2); assay: Competition binding with [3H]ponasterone A, NvEcR11DEF-NvUSPDEF; conditions: for Ki: calculated from IC50 with the Cheng-Prusoff equation; for IC50: competition with 1.3 nM bindable [3H]ponasterone A
Procedure: as §1, §2

[1] = test system: NvEcR10DEF-NvUSPDEF recombinant ecdysone receptor ligand binding region heterodimer; assay: [3H]ponasterone A filter binding assay / equilibrium binding, NvEcR10DEF-NvUSPDEF; design: species or system Nezara viridula
Procedure: (§3) Ponasterone A binding data used in Kd determination for the purified recombinant heterodimers NvEcR10DEF−NvUSPDEF and NvEcR11DEF−NvUSPDEF (Kd curves). Rt=concentration of active receptor. L=free [^3H] Ponasterone A. All values in tables are given in pM.
as §1, with “Historically, IU was defined as the amount of [^3H]ponasterone A binding conveyed by a fixed volume of a specific receptor preparation. Differences in the assay over time were corrected for empirically by re-assaying the reference receptor preparation with each new batch of [^3H]ponasterone A and calculating a batch-specific adjustment that was incorporated into the numerical factor used to convert filter-bound cpm into ligand binding units.” left out, “receptor. […]” for “receptor.”

[2] = test system: NvEcR11DEF-NvUSPDEF recombinant ecdysone receptor ligand binding region heterodimer; assay: [3H]ponasterone A filter binding assay / equilibrium binding, NvEcR11DEF-NvUSPDEF; design: species or system Nezara viridula
Procedure: as §3
as §1, with “Historically, IU was defined as the amount of [^3H]ponasterone A binding conveyed by a fixed volume of a specific receptor preparation. Differences in the assay over time were corrected for empirically by re-assaying the reference receptor preparation with each new batch of [^3H]ponasterone A and calculating a batch-specific adjustment that was incorporated into the numerical factor used to convert filter-bound cpm into ligand binding units.” left out, “receptor. […]” for “receptor.”

[3] = target: ecdysone receptor recombinant ligand binding domains (DEF regions) heterodimer; assay: [3H]ponasterone A binding, Lucilia cuprina recombinant ligand binding region heterodimer; conditions: IMAC-purified Lucilia cuprina heterodimer; previously studied by this group
Procedure: as §1, with “Differences in the assay over time were corrected for empirically by re-assaying the reference receptor preparation with each new batch of [^3H]ponasterone A and calculating a batch-specific adjustment that was incorporated into the numerical factor used to convert filter-bound cpm into ligand binding units.” left out

[4] = target: ecdysone receptor recombinant ligand binding domains (DEF regions) heterodimer; assay: [3H]ponasterone A binding, Myzus persicae recombinant ligand binding region heterodimer; conditions: IMAC-purified Myzus persicae heterodimer; previously studied by this group
Procedure: as §1, with “Differences in the assay over time were corrected for empirically by re-assaying the reference receptor preparation with each new batch of [^3H]ponasterone A and calculating a batch-specific adjustment that was incorporated into the numerical factor used to convert filter-bound cpm into ligand binding units.” left out, “receptor. […]” for “receptor.”

[5] = target: ecdysone receptor recombinant ligand binding domains (DEF regions) heterodimer; assay: [3H]ponasterone A binding, Bemisia tabaci recombinant ligand binding region heterodimer; conditions: IMAC-purified Bemisia tabaci heterodimer; previously studied by this group
Procedure: as §1, with “Differences in the assay over time were corrected for empirically by re-assaying the reference receptor preparation with each new batch of [^3H]ponasterone A and calculating a batch-specific adjustment that was incorporated into the numerical factor used to convert filter-bound cpm into ligand binding units.” left out, “receptor. […]” for “receptor.”

[6] = target: ecdysone receptor recombinant ligand binding domains (DEF regions) heterodimer; assay: [3H]ponasterone A binding, Helicoverpa armigera recombinant ligand binding region heterodimer; conditions: IMAC-purified Helicoverpa armigera heterodimer; previously studied by this group
Procedure: as §1, with “Differences in the assay over time were corrected for empirically by re-assaying the reference receptor preparation with each new batch of [^3H]ponasterone A and calculating a batch-specific adjustment that was incorporated into the numerical factor used to convert filter-bound cpm into ligand binding units.” left out, “receptor. […]” for “receptor.”

[7] = target: T1, FLAG-tagged NvUSPDEF (DEF domains / ligand binding region of Nezara viridula ultraspiracle protein) (Nezara viridula); assay: IMAC co-purification of the heterodimer through the His6 tag on EcRDEF, from Sf9 cell extracts
T1 construct: Co-expressed with His6-EcRDEF (isoform 10 or 11) in Sf9 cells; also called FLAG USPDEF; FLAG USPDEF5.1
T1 chain: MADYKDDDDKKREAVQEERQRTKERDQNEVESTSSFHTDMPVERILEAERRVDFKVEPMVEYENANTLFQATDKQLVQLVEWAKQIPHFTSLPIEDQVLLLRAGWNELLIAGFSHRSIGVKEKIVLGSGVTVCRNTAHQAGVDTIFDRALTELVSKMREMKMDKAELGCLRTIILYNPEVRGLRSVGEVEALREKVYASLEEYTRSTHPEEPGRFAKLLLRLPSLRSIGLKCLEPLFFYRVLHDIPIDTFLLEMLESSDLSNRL

| Molecule | Ki (NvEcR10DEF-NvUSPDEF) [nM] | IC50 (NvEcR10DEF-NvUSPDEF) [nM] | Ki (NvEcR11DEF-NvUSPDEF) [nM] | IC50 (NvEcR11DEF-NvUSPDEF) [nM] | other results |
| --- | --- | --- | --- | --- | --- |
| 2β, 3β, 14α, 20R,22R,25-hexahydroxy-5β-cholest-7-′ene-6-one [20-hydroxyecdysone] | 3600 | 4000 | 3800 | 4500 | – |
| CC(CO)CC[C@@H](O)[C@](C)(O)[C@H]1CC[C@@]2(O)C3=CC(=O)[C@@H]4C[C@@H](O)[C@@H](O)C[C@]4(C)[C@H]3CC[C@]12C (stereo partly drawn) [Inokosterone] | 6300 | 7500 | 6800 | 8000 | – |
| CC(C)CC[C@@H](O)[C@](C)(O)[C@H]1CC[C@@]2(O)C3=CC(=O)[C@]4(O)C[C@@H](O)[C@@H](O)C[C@]4(C)[C@H]3[C@H](O)C[C@]12C [Muristerone A] | 100 | 120 | 100 | 120 | – |
| CC(C)CC[C@@H](O)[C@](C)(O)[C@H]1CC[C@@]2(O)C3=CC(=O)[C@@H]4C[C@@H](O)[C@@H](O)C[C@]4(C)[C@H]3CC[C@]12C [Ponasterone A] | 200 | 260 | 200 | 280 | – |
| CC(C(O)CCC(C)(C)O)C1CCC2(O)C3=CC(=O)C4CC(O)C(O)CC4(C)C3CCC12C [α-Ecdysone, 2β, 3β, 14α,22R, 25-pentahydroxy-5β-cholest-7-ene-6-one] | 46200 | 55000 | 45200 | 53000 | – |
| [^3H]ponasterone A | – | – | – | – | Specific activity ([3H]ponasterone A binding units per μg protein) ([1]; IMAC-purified NvEcR10DEF-NvUSPDEF, 2.2 nM bindable [3H]ponasterone A): 5.0 U/μg; Kd ([1]; equilibrium binding of [3H]ponasterone A to IMAC-purified NvEcR10DEF-NvUSPDEF): 6.8 ± 0.8 nM; Specific activity ([3H]ponasterone A binding units per μg protein) ([2]; IMAC-purified NvEcR11DEF-NvUSPDEF, 2.2 nM bindable [3H]ponasterone A): 7.3 U/μg; Kd ([2]; equilibrium binding of [3H]ponasterone A to IMAC-purified NvEcR11DEF-NvUSPDEF): 7.5 ± 0.8 nM; Kd [3]: 1 ± 0.1 nM; Specific activity ([3H]ponasterone A binding units per μg protein) [3]: 15.4-24.3 U/μg; Kd [4]: 0.7 ± 0.1 nM; Specific activity ([3H]ponasterone A binding units per μg protein) [4]: 17.3-18.8 U/μg; Kd [5]: 1.2 ± 0.2 nM; Specific activity ([3H]ponasterone A binding units per μg protein) [5]: 11.3 U/μg; Kd [6]: 2.5 ± 0.1 nM |
| B1 | – | – | – | – | binding result [7]: binds |
| B2 | – | – | – | – | binding result [7]: binds |
